What was measured:
recombinant human WRN = target: T1, recombinant human WRN (Homo sapiens, UniProt Q14191); assay: Inhibition of WRN enzyme activity (ATPase), ADP-Glo Kinase Assay; type: biochemical; details: WRN protein 5 nM, Flap 0.1 nM, ATP 30 µM; read-out: IC50
T1 construct: purchased BPS 101264
Summary of the method: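 Recombinant human WRN (5 nM) was preincubated with compound (1000–0.004 nM) for 15 min at room temperature. Flap26 5'-flap DNA (0.1 nM) and 30 µM ATP were then added for 10 min in Tris pH 7.5, MgCl2, NaCl, BSA, Pluronic buffer. ADP was detected by ADP-Glo luminescence, and IC50 was obtained by nonlinear regression versus a 0.1% DMSO control.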

RL95-2 cells = assay: Inhibition of RL95-2 cell proliferation (CellTiter-Glo); type: cell-based; details: Homo sapiens; RL95-2 cells (MSI-H), 120 hours
Summary of the method: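 RL95-2 (MSI-H) cells, 500/well in DMEM/F12 with 10% FBS, adhered overnight, then treated 120 h at 37 °C, 5% CO2 with compound at final 1.52-10000 nM. Viability by CellTiter-Glo luminescence. Inhibition relative to 0.1% DMSO control; IC50 from nonlinear regression of log concentration versus inhibition.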

SW48 cells = assay: Inhibition of SW48 cell proliferation (CellTiter-Glo); type: cell-based; details: Homo sapiens; SW48 cells (MSI-H), 120 hours
Summary of the method: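 SW48 (MSI-H) cells in L-15 with 10% FBS were seeded at 500 per well, cultured overnight at 37 °C, then exposed to compound at final concentrations of 10000 nM to 1.52 nM for 120 h. Viability was read by CellTiter-Glo luminescence, with inhibition relative to 0.1% DMSO. IC50 from nonlinear regression of log concentration versus inhibition.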

[1] = Pharmacokinetic test in mice after intragastric administration; type: in vivo; details: male, mouse, plasma, ICR mice, Oral (10 mg/kg); for AUC(0-t): read-out: Area under curve AUC0-t; for half-life: read-out: Half-life T1/2 (converted); for Cmax: read-out: Plasma concentration Cmax
Protocol: ICR mice were used as test animals, the plasma concentrations of the control compound HRO761 and the compounds of the present disclosure at different time points after intragastric administration were determined by LC/MS/MS method, and the pharmacokinetic characteristics of the compounds of the present disclosure in mice were studied.
ICR mice, male, 30.8 to 38.0 g, purchased from Vital River Laboratory Animal Technology Co., Ltd.
An appropriate amount of the test compound was weighed, and an appropriate amount of DMA (N,N-dimethylacetamide), 30% Solutol HS15 (30% polyethylene glycol-15 hydroxystearate), and Saline (saline) were added sequentially, the mixture was ultrasonicated and vortex mixed to prepare a 1 mg/mL dosing formulation. The ratio of DMA:30% Solutol HS15:Saline was 5:5:90 (v/v/v).
After overnight fasting, ICR mice in each test compound injection group (9 mice per group) were administered intragastrically (PO, compound dose was 10 mg/kg, administration volume was 10 mL/kg), and food was given 4 hours after administration.
About 0.1 mL of blood was collected via the orbital cavity before administration and at 0.25 h, 0.5 h, 1 h, 2 h, 4 h, 8 h, 10 h, and 24 h after administration, and whole blood samples were placed in anticoagulant tubes containing EDTA-K2. The samples were placed on ice after collection, and plasma was separated by centrifugation (centrifugation conditions: 1500 g, 10 minutes). The collected plasma was stored at -40 to -20 °C before analysis.
The content of the test compound in mouse plasma after intragastric administration was determined by LC-MS/MS.

T1 sequence (Q14191 whole entry): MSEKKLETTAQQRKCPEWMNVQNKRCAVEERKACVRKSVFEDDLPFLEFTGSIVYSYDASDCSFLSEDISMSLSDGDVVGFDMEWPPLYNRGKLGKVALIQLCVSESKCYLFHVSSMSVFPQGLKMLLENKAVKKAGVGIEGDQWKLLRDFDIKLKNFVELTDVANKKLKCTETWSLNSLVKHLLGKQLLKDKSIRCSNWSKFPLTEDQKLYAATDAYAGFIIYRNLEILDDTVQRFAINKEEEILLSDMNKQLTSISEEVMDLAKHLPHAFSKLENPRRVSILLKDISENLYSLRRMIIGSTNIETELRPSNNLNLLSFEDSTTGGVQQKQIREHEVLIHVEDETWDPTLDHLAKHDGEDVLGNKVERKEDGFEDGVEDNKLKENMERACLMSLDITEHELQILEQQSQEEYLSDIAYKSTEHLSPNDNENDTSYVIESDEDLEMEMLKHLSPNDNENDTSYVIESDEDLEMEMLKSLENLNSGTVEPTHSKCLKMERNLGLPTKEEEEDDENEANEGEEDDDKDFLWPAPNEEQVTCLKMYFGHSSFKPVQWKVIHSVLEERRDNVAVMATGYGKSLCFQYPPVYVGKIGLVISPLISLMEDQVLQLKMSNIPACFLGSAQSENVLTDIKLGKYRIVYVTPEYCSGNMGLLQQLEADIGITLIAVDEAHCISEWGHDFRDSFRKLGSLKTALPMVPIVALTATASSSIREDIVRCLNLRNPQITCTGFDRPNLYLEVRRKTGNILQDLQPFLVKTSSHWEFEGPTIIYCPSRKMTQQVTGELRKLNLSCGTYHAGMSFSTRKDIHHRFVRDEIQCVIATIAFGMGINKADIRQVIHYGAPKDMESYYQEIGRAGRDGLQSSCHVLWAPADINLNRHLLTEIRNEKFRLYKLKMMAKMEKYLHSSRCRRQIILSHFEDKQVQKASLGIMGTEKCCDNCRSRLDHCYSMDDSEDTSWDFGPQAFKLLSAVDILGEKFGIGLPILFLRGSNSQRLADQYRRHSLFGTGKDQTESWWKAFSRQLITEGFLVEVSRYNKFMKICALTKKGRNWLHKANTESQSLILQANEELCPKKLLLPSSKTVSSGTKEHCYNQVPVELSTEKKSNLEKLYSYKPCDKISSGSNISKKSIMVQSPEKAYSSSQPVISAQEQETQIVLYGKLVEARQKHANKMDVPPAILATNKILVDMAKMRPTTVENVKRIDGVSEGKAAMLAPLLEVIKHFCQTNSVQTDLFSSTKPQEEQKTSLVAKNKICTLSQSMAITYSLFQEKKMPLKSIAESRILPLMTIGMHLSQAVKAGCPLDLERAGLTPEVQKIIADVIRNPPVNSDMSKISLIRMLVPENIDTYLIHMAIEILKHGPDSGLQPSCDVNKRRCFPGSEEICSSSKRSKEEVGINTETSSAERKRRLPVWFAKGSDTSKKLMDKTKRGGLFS

| IC50 (recombinant human WRN) | IC50 (SW48 cells) | AUC(0-t) [1] | half-life [1] | Cmax [1] | SMILES | IC50 (RL95-2 cells) |
| --- | --- | --- | --- | --- | --- | --- |
| < 1 nM | 1 to 100 nM | 39700 ng·h/mL | 1.26 h | 15900 ng/mL | CCc1c(N2CCN(C(=O)c3ncnc(C)c3O)CC2)c(=O)n2nc(C3=CCCCCC3)nc2n1CC(=O)Nc1ccc(C(F)(F)F)cc1Cl [Example 6, N-(2-chloro-4-(trifluoromethyl)phenyl)-2-(2-(cyclohept-1-en-1-yl)-5-ethyl-6-(4-(5-hydroxy-6-methylpyrimidine-4-carbonyl)piperazin-1-yl)-7-oxo-[1,2,4]triazolo[1,5-a]pyrimidin-4(7H)-yl)acetamide] | 1 to 100 nM |
| 1 to 100 nM | 1 to 100 nM | 66600 ng·h/mL | 2.27 h | 18100 ng/mL | CCc1c(N2CCN(C(=O)c3ncnc(C)c3O)CC2)c(=O)n2nc(C3=CCCCCC3)nc2n1CC(=O)Nc1ccc(S(F)(F)(F)(F)F)cc1 [Example 27, 2-(2-(cyclohept-1-en-1-yl)-5-ethyl-6-(4-(5-hydroxy-6-methylpyrimidine-4-carbonyl)piperazin-1-yl)-7-oxo-[1,2,4]triazolo[1,5-a]pyrimidin-4(7H)-yl)-N-(4-(pentafluoro-λ^66-sulfaneyl)phenyl)acet amide] | 1 to 100 nM |
| 1 to 100 nM | 1 to 100 nM | 28500 ng·h/mL | 2.3 h | 9920 ng/mL | CCc1c(N2CCN(C(=O)c3ncnc(C)c3O)CC2)c(=O)n2nc(-c3ccc4occc4c3)nc2n1CC(=O)Nc1ccc(S(F)(F)(F)(F)F)cc1 [Example 97, 2-(2-(benzofuran-5-yl)-5-ethyl-6-(4-(5-hydroxy-6-methylpyrimidine-4-carbonyl)piperazin-1-yl)-7-oxo-[1,2,4]triazolo[1,5-a]pyrimidin-4(7H)-yl)-N-(4-(pentafluoro-λ^6-sulfaneyl)phenyl)acetamide] | 1 to 100 nM |
| 1 to 100 nM | 1 to 100 nM | 24300 ng·h/mL | 2.75 h | 7120 ng/mL | CCc1c(N2CCN(C(=O)c3ncnc(C)c3O)CC2)c(=O)n2nc(-c3ccc4c(ccn4C)c3)nc2n1CC(=O)Nc1ccc(C(F)(F)F)cc1Cl [Example 103, N-(2-chloro-4-(trifluoromethyl)phenyl)-2-(5-ethyl-6-(4-(5-hydroxy-6-methylpyrimidine-4-carbonyl)piperazin-1-yl)-2-(1-methyl-1H-indol-5-yl)-7-oxo-[1,2,4]triazolo[1,5-a]pyrimidin-4(7H)-yl)ac etamide] | 1 to 100 nM |
| 1 to 100 nM | 1 to 100 nM | 330000 ng·h/mL | 4.85 h | 45000 ng/mL | Cc1ncnc(C(=O)N2CCN(c3c(C)n(CC(=O)Nc4ccc(C(F)(F)F)cc4Cl)c4nc(-c5ccc6c(c5)CCO6)nn4c3=O)CC2)c1O [Example 106, N-(2-chloro-4-(trifluoromethyl)phenyl)-2-(2-(2,3-dihydrobenzofuran-5-yl)-6-(4-(5-hydroxy-6-methylpyrimidine-4-carbonyl)piperazin-1-yl)-5-methyl-7-oxo-[1,2,4]triazolo[1,5-a]pyrimidin-4(7H) -yl)acetamide] | 1 to 100 nM |
| 1 to 100 nM | 1 to 100 nM | – | – | – | CCc1c(N2CCN(C(=O)c3ncccc3O)CC2)c(=O)n2nc(C3=CC4CC(C)(O)CC4C3)nc2n1CC(=O)Nc1ccc(C(F)(F)F)cc1Cl (stereo not drawn) [Example 164, N-(2-chloro-4-(trifluoromethyl)phenyl)-2-(5-ethyl-2-(5-hydroxy-5-methyl-1,3a,4,5,6,6a-hexahydropentalen-2-yl)-6-(4-(3-hydroxypicolinoyl)piperazin-1-yl)-7-oxo-[1,2,4]triazolo[1,5-a]pyrimidin-4(7H)-yl)acetamide] | 1 to 100 nM |
| < 1 nM | 1 to 100 nM | – | – | – | CCc1c(N2CCN(C(=O)c3ncccc3O)CC2)c(=O)n2nc(C3=CC4CC(O)CC4C3)nc2n1CC(=O)Nc1ccc(S(F)(F)(F)(F)F)cc1 (stereo not drawn) [Example 178, 2-(5-ethyl-2-(5-hydroxy-1,3a,4,5,6,6a-hexahydropentalen-2-yl)-6-(4-(3-hydroxypicolinoyl)piperazin-1-yl)-7-oxo-[1,2,4]triazolo[1,5-a]pyrimidin-4(7H)-yl)-N-(4-(pentafluoro-λ^6-sulfaneyl)phenyl) acetamide] | 1 to 100 nM |
| 1 to 100 nM | 1 to 100 nM | – | – | – | CCc1c(N2CCN(C(=O)c3ncnc(C)c3O)CC2)c(=O)n2nc(-c3ccc4c(ccn4CC)c3)nc2n1CC(=O)Nc1ccc(C(F)(F)F)cc1Cl [Example 183, N-(2-chloro-4-(trifluoromethyl)phenyl)-2-(5-ethyl-2-(1-ethyl-1H-indol-5-yl)-6-(4-(5-hydroxy-6-methylpyrimidine-4-carbonyl)piperazin-1-yl)-7-oxo-[1,2,4]triazolo[1,5-a]pyrimidin-4(7H)-yl)ace tamide] | 1 to 100 nM |
| 1 to 100 nM | 1 to 100 nM | – | – | – | CCc1c(N2CCN(C(=O)c3ncnc(C)c3O)CC2)c(=O)n2nc(-c3ccc4c(ccn4C(C)C)c3)nc2n1CC(=O)Nc1ccc(C(F)(F)F)cc1Cl [Example 184, N-(2-chloro-4-(trifluoromethyl)phenyl)-2-(5-ethyl-6-(4-(5-hydroxy-6-methylpyrimidine-4-carbonyl)piperazin-1-yl)-2-(1-isopropyl-1H-indol-5-yl)-7-oxo-[1,2,4]triazolo[1,5-a]pyrimidin-4(7H)-yl) acetamide] | 1 to 100 nM |
| 1 to 100 nM | 1 to 100 nM | – | – | – | [2H]C([2H])([2H])n1ccc2cc(-c3nc4n(CC(=O)Nc5ccc(C(F)(F)F)cc5Cl)c(CC)c(N5CCN(C(=O)c6ncnc(C)c6O)CC5)c(=O)n4n3)ccc21 [Example 185, N-(2-chloro-4-(trifluoromethyl)phenyl)-2-(5-ethyl-6-(4-(5-hydroxy-6-methylpyrimidine-4-carbonyl)piperazin-1-yl)-2-(1-(methyl-d3)-1H-indol-5-yl)-7-oxo-[1,2,4]triazolo[1,5-a]pyrimidin-4(7H)-yl)acetamide] | 1 to 100 nM |
| 1 to 100 nM | 1 to 100 nM | – | – | – | CCc1c(N2CCN(C(=O)c3ncccc3O)CC2)c(=O)n2nc(C3=CC4CC(OC)CC4C3)nc2n1CC(=O)Nc1ccc(C(F)(F)F)cc1Cl (stereo not drawn) [Example 186, N-(2-chloro-4-(trifluoromethyl)phenyl)-2-(5-ethyl-6-(4-(3-hydroxypicolinoyl)piperazin-1-yl)-2-(5-methoxy-1,3a,4,5,6,6a-hexahydropentalen-2-yl)-7-oxo-[1,2,4]triazolo[1,5-a]pyrimidin-4(7H)-yl)acetamide] | 1 to 100 nM |
| 1 to 100 nM | 1 to 100 nM | – | – | – | CCc1c(N2CCN(C(=O)c3nccc(Cl)c3O)CC2)c(=O)n2nc(C3=CC4COCC4C3)nc2n1CC(=O)Nc1ccc(C(F)(F)F)cc1Cl (stereo not drawn) [Example 188, 2-(6-(4-(4-chloro-3-hydroxypicolinoyl)piperazin-1-yl)-5-ethyl-7-oxo-2-(3,3a,4,6a-tetrahydro-1H-cyclopenta[c]furan-5-yl)-[1,2,4]triazolo[1,5-a]pyrimidin-4(7H)-yl)-N-(2-chloro-4-(trifluoromethyl)phenyl)acetamide] | 1 to 100 nM |

From patent EP4800015A1, “AZABICYCLO DERIVATIVE AND PREPARATION METHOD THEREFOR, AND USE” (Zhejiang Hisun Pharmaceutical Co., Ltd., priority 2023, dated 2025)
